Data reported in US7902196B2, “Synthesis of avrainvillamide, strephacidin B, and analogues thereof” (President and Fellows of Harvard College, priority 2005, dated 2011).
Blank lines part the entries; values can stand above or below the compound they belong to.

Assays:
cell cycle = assay: effect of avrainvillamide on the cell cycle (FIG. 19); assay type: cell-based
[1] = 1,5-addition of methanol-d4 to 2
[2] = decomposition of stephacidin B into avrainvillamide (FIG. 18); assay type: physicochemical
[3] = system: cultured human cancer cells; conditions: reported for the fungal isolates; cited from earlier work
apoptosis and necrosis = assay: induction of apoptosis and necrosis (FIG. 20); assay type: cell-based
Description: FIG. 20 induces apoptosis at 1-4 μM and necrosis at 8 μM.

[4] = system: multidrug-resistant bacteria; conditions: reported; cited from earlier work
[5] = stability in solution protected from light
[6] = interconversion of stephacidin B (1) and 2 in solution; assay type: physicochemical; conditions: 50% DMSO-d6-CD3CN, 23° C.
Description: Our preliminary studies leave little doubt that 1 and 2 are readily interconverted in solution. For example, concentration of an acetonitrile-water solution of pure synthetic stephacidin B (1) at 38° C. afforded a 2:1 mixture of 2 and 1, as well as unidentified decomposition products. Also, whereas solutions of pure 1 in 50% DMSO-d6-CD3CN appeared to be stable for at least 48 h at 23° C. (The merits of the DMSO-d6-CD3CN solvent system in stabilizing stephacidin B were discussed in Qian-Cutrone et al. J. Am. Chem. Soc. 2002, 124, 14556; incorporated herein by reference.), addition of powdered 3-Å molecular sieves led to partial retro-dimerization, giving a 2:1 mixture of 1 and 2 within 1 h at 23° C. We also observed partial transformation of 1 to form 2 upon exposure to silica gel (2D-TLC analysis). From the data thus far it is clear that (−)-2 and (+)-1 readily interconvert under mild conditions. […] In theory, the converse may be true, though this seems less likely, simply upon consideration of concentration effects. Our results also leave open the possibility that stephacidin B is an artifact of the isolation of 2; the converse may be true instead, though this would appear to be less likely.

Compound: CC1(C)C=Cc2c(ccc3c2[N+]([O-])=C2C3=C[C@@]34NC(=O)[C@]5(CCCN5C3=O)C[C@H]4C2(C)C)O1 [avrainvillamide]
effect on the cell cycle (cell cycle): induces arrest in G2/M
equilibrium constant, methanol-d4 adducts combined to 2 ([1]; 23° C., tentative): 7.7
time to form the products of 1,5-addition of methanol-d4 ([1]; pure methanol-d4, 23° C.): < 10 min
half-life ([1]; solution in pure methanol-d4): < 10 min
species present under physiological conditions [2]: major species present under physiological conditions
antiproliferative activity [3]: exhibit antiproliferative activity
concentration inducing apoptosis (apoptosis and necrosis): 1 to 4 µM
concentration inducing necrosis (apoptosis and necrosis): 8 µM
antimicrobial activity [4]: anti-microbial activity against multidrug-resistant bacteria

Compound: CC1(C)C=Cc2c(ccc3c2[N+]([O-])=C2C3=C[C@@]34NC(=O)[C@]5(CCCN5C3=O)C[C@H]4C2(C)C)O1 [compound 1, avrainvillamide]
antimicrobial activity [4]: antimicrobial activity against multidrug-resistant bacteria

Compound: CC1(C)C=Cc2c(ccc3c2[N+]([O-])=C2C(C)(C)[C@@H]4C[C@]56CCCN5C(=O)C4(NC6=O)C4N5C(=O)C67CCCN6C(=O)[C@]56C(C7)C(C)(C)c5c(c7ccc8c(c7n5O)C=CC(C)(C)O8)[C@H]6C234)O1 (stereo partly drawn) [stephacidin B]
avrainvillamide formed by decomposition of stephacidin B [2]: 1.7 equiv.
antiproliferative activity [3]: exhibit antiproliferative activity

time stable in solution ([5]; 37 mM solution in methylene-d2-chloride, 23° C., protected from light): at least 7 h
stability upon concentration to dryness ([5]; 1H NMR analysis): decomposed within two hours
Compound: CC(C)(C)/C=C/C=[N+]([O-])c1ccccc1 [α-(trans-3,3-dimethyl-1-butenyl)-N-phenylnitrone]

Compound: avrainvillamide [compound 1]
time solutions appeared stable [6]: at least 48 h
